The source of these data is US20230165251A1, “SUBSTITUTED TOLYL FUNGICIDES AND THEIR MIXTURES” (FMC Corporation, priority 2020, published 2023).

Assay [1] deals with Puccinia recondita f. sp. tritici. As to the kind of experiment: Test B: preventive spray on wheat seedlings, wheat leaf rust. The assay is classed as in vivo. The conditions noted are these: for pest or weed control at 10 ppm: Puccinia recondita, 192 h, read-out: Test B disease control rating. The source says: (§1) General protocol for preparing test suspensions for Tests A-F: the test compounds were first dissolved in acetone in an amount equal to 3% of the final volume and then suspended at the desired concentration (in ppm) in acetone and purified water (50/50 mix by volume) containing 250 ppm of the surfactant PEG400 (polyhydric alcohol esters). The resulting test suspensions were then used in Tests A-F.
The test solution was sprayed to the point of run-off on wheat seedlings. The following day the seedlings were inoculated with a spore suspension of Puccinia recondita f. sp. tritici (the causal agent of wheat leaf rust) and incubated in a saturated atmosphere at 20° C. for 24 h, and then moved to a growth chamber at 20° C. for 7 days, after which time disease ratings were made.
(§2) A rating of 100 indicates 100% disease control and a rating of 0 indicates no disease control (relative to the controls). A dash (-) indicates the compound was not tested.

Assay [2] concerns Phakopsora pachyrhizi. Put plainly: Test D: preventive spray on soybean seedlings, Asian soybean rust. Type of assay: in vivo. The conditions noted are these: Rate 10 ppm; for pest or weed control at 10 ppm: Phakopsora pachyrhizi, 216 h, read-out: Test D disease control rating.
From the text: as §1
The test solution was sprayed to the point of run-off on soybean seedlings. The following day the seedlings were inoculated with a spore suspension of Phakopsora pachyrhizi (the causal agent of Asian soybean rust) and incubated in a saturated atmosphere at 22° C. for 24 h and then moved to a growth chamber at 22° C. for 8 days, after which time visual disease ratings were made.
as §2

Turning to `CCCc1cc(F)c(-n2ccc(-c3ccc(C)c(CNC(=O)OC)c3)n2)c(F)c1` [compound 145], the “Test B disease control rating” value in assay [1] (Rate 10 ppm) was found to be 100%. Also, in assay [2], the “Test D disease control rating” value worked out at 100%. As for `COC(=O)NCc1cc(-c2ccn(-c3c(F)cc(SC)cc3F)n2)ccc1C` [compound 27], in assay [1] (Rate 10 ppm), the “Test B disease control rating” value was 99%. Further, the “Test D disease control rating” value in assay [2] turned out to be 100%.

As for `COC(=O)NCc1cc(-c2ccn(-c3c(Cl)cc(Cl)cc3Cl)n2)ccc1C` [compound 57], the “Test B disease control rating” value in assay [1] (Rate 10 ppm) was 74%. The “Test D disease control rating” value in assay [2] is listed as 100%. On the same counts, the results for `COC(=O)NCc1cc(-c2cn(-c3c(F)cc(I)cc3F)nn2)ccc1C` [compound 125] are 68% and 0%.

Take `COC(=O)NCc1cc(-c2ccn(-c3c(F)cc(OCC(F)(F)F)cc3F)n2)ccc1C` [compound 22]: in assay [1] (Rate 10 ppm), the “Test B disease control rating” value turned out to be 99%. Besides, in assay [2], the “Test D disease control rating” value was found to be 100%. On the same counts, the results for `COC(=O)NCc1cc(-c2ccn(-c3c(F)cc(N)cc3Cl)n2)ccc1C` [compound 39] are 0% and 0%. As for `CO/N=C(/C)c1cc(F)c(-n2ccc(-c3ccc(C)c(CNC(=O)OC)c3)n2)c(F)c1` [Compound 99, methyl (Z)-N-[[5-[1-[2,6-difluoro-4-[1-(methoxyimino)ethyl]phenyl]-1H-pyrazol-3-yl]-2-methylphenyl]methyl]carbamate], the pest or weed control at 10 ppm in assay [1] (Rate 10 ppm) and in assay [2] was 100% in each case. For the molecule “methyl N-[[5-[2-[2,6-difluoro-4-(1-methylethyl)phenyl]-2H-1,2,3-triazol-4-yl]-2-methylphenyl]methyl]carbamate [Compound 108]”, the “Test B disease control rating” value in assay [1] (Rate 2 ppm) was 100%. With `COC(=O)NCc1cc(-c2ccn(-c3c(Cl)cccc3I)n2)ccc1C` [compound 59], the “Test B disease control rating” value in assay [1] (Rate 10 ppm) was found to be 45%. Besides, the “Test D disease control rating” value in assay [2] stood at 87%. On the same counts, the results for `C=Cc1cc(F)c(-n2ccc(-c3ccc(C)c(CNC(=O)OC)c3)n2)c(F)c1` [compound 146] are 100% and 100%. The corresponding values for `COC(=O)NCc1cc(-c2ccn(-c3c(Br)cc(I)cc3Br)n2)ccc1C` [compound 136] are 19% and 59%. `COC(=O)NCc1cc(-c2ccn(-c3c(F)cccc3Cl)n2)ccc1C` [compound 47]: the “Test B disease control rating” value in assay [1] (Rate 10 ppm) was found to be 74%. In assay [2], the “Test D disease control rating” value was 100%. Turning to `COC(=O)NCc1cc(-c2cn(-c3c(Br)cc(OC)cc3Br)nn2)ccc1C` [compound 128], in assay [1] (Rate 10 ppm), the “Test B disease control rating” value is 0%. For the same molecule, the “Test D disease control rating” value in assay [2] was determined as 0%.

Consider `COC(=O)NCc1cc(-c2cn(-c3c(Br)cc(OC)cc3[N+](=O)[O-])nn2)ccc1C` [compound 129], for which, in assay [1] (Rate 10 ppm), the “Test B disease control rating” value was determined as 0%. Further, the “Test D disease control rating” value in assay [2] is reported as 0%. Consider `COC(=O)NCc1cc(-c2cn(-c3c(Cl)cc(OC)cc3OC)nn2)ccc1C` [compound 120], for which, in assay [1] (Rate 10 ppm), the “Test B disease control rating” value is listed as 0%. Moreover, in assay [2], the “Test D disease control rating” value came to 0%.

As for `CCc1cc(F)c(-n2ccc(-c3ccc(C)c(CNC(=O)OC)c3)n2)c(F)c1` [compound 144], the “Test B disease control rating” value in assay [1] (Rate 10 ppm) is reported as 100%. The “Test D disease control rating” value in assay [2] came out at 100%. As to `COC(=O)NCc1cc(-c2ccn(-c3c(F)cccc3I)n2)ccc1C` [compound 45], the “Test B disease control rating” value in assay [1] (Rate 10 ppm) was found to be 0%. The “Test D disease control rating” value in assay [2] was found to be 100%. The corresponding values for `COC(=O)NCc1cc(-c2ccn(-c3c(F)cc(C4OCCCO4)cc3F)n2)ccc1C` [Compound 134] are 89% and 100%.

As to “methyl N-[[5-[1-[2,6-dichloro-4-(1,1-dimethylethyl)phenyl]-1H-pyrazol-3-yl]-2-methylphenyl]methyl]carbamate [Compound 135]”, the “Test B disease control rating” value in assay [1] (Rate 10 ppm) amounted to 86%. As to `CCC(C)c1cc(F)c(-n2ncc(-c3ccc(C)c(CNC(=O)OC)c3)n2)c(F)c1` (stereo not shown) [Compound 139, methyl N-[[5-[2-[2,6-difluoro-4-(1-methylpropyl)phenyl]-2H-1,2,3-triazol-4-yl]-2-methylphenyl]methyl]carbamate], the pest or weed control at 10 ppm was determined as 99% in assay [1] (Rate 10 ppm) and 100% in assay [2].

On to `COC(=O)NCc1cc(-c2ccn(-c3c(F)cc(C4OCCO4)cc3F)n2)ccc1C` [compound 133], for which, in assay [1] (Rate 10 ppm), the “Test B disease control rating” value came to 99%. Also, in assay [2], the “Test D disease control rating” value is listed as 100%. For `COC(=O)NNc1cc(-c2ccn(-c3c(F)cccc3F)n2)ccc1C` [Compound 154], the pest or weed control at 10 ppm in assay [1] (Rate 10 ppm) stood at 0%; in assay [2] it was 25%. In the case of `COC(=O)NCc1cc(-c2cn(-c3c(F)cc(OC)cc3F)nn2)ccc1C` [compound 130], the “Test B disease control rating” value in assay [1] (Rate 10 ppm) was 68%. The “Test D disease control rating” value in assay [2] came to 0%. `COC(=O)NNc1cc(-c2ccn(-c3c(F)cc(C(F)(F)F)cc3F)n2)ccc1C` [Compound 156]: the pest or weed control at 10 ppm is 85% in assay [1] (Rate 10 ppm) and 54% in assay [2]. With `CC=Cc1cc(F)c(-n2ccc(-c3ccc(C)c(CNC(=O)OC)c3)n2)c(F)c1` [compound 147], the “Test B disease control rating” value in assay [1] (Rate 10 ppm) was 99%. Besides, the “Test D disease control rating” value in assay [2] was determined as 100%. The corresponding values for `COC(=O)NCc1cc(-c2ccn(-c3c(F)cc(N(C)C)cc3F)n2)ccc1C` [compound 152] are 98% and 99%. The corresponding values for `COC(=O)NCc1cc(-c2cn(-c3c(F)cc(Br)cc3F)nn2)ccc1C` [compound 126] are 57% and 0%. The corresponding values for `COC(=O)NCc1cc(-c2ccn(-c3c(Cl)cc(Br)cc3Cl)n2)ccc1C` [compound 56] are 80% and 100%.

With `COC(=O)NCc1cc(-c2ccn(-c3c(F)cc(N4CCCC4)cc3F)n2)ccc1C` [compound 150], the “Test B disease control rating” value in assay [1] (Rate 10 ppm) came out at 68%. Also, the “Test D disease control rating” value in assay [2] was 0%. The corresponding values for `COC(=O)NCc1cc(-c2ccn(-c3c(Cl)cc(N)cc3Cl)n2)ccc1C` [compound 55] are 0% and 0%. `CO/N=C(\C)c1cc(F)c(-n2ccc(-c3ccc(C)c(CNC(=O)OC)c3)n2)c(F)c1` [Compound 83, methyl (E)-N-[[5-[1-[2,6-difluoro-4-[1-(methoxyimino)ethyl]phenyl]-1H-pyrazol-3-yl]-2-methylphenyl]methyl]carbamate]: the pest or weed control at 10 ppm in assay [1] (Rate 10 ppm) and in assay [2] was 100% each time. In the case of `COC(=O)NCc1cc(-c2ccn(-c3c(Br)cccc3I)n2)ccc1C` [compound 52], the “Test B disease control rating” value in assay [1] (Rate 10 ppm) stood at 0%. Besides, the “Test D disease control rating” value in assay [2] is given as 99%. On the same counts, the results for `COC(=O)NCc1cc(-c2ccn(-c3c(F)cc(I)cc3SC)n2)ccc1C` [compound 26] are 73% and 87%. As for `COC(=O)NCc1cc(-c2ccn(-c3c(F)cc(N4CCOCC4)cc3F)n2)ccc1C` [compound 149], the “Test B disease control rating” value in assay [1] (Rate 10 ppm) is on record as 83%. In addition, the “Test D disease control rating” value in assay [2] is 99%. On the same counts, the results for `COC(=O)NCc1cc(-c2ccn(-c3c(C)cccc3Br)n2)ccc1C` [compound 61] are 68% and 97%. On the same counts, the results for `COC(=O)NCc1cc(-c2ccn(-c3c(Br)cccc3Br)n2)ccc1C` [compound 58] are 68% and 100%. The corresponding values for `COC(=O)NCc1cc(-c2cn(-c3c(F)cc(C)cc3F)nn2)ccc1C` [compound 119] are 100% and 0%.

In the case of `COC(=O)NCc1cc(-c2ccn(-c3c(F)cc(C4(C)CC4)cc3F)n2)ccc1C` [compound 74], the “Test B disease control rating” value in assay [1] (Rate 10 ppm) was found to be 100%. For the same molecule, the “Test D disease control rating” value in assay [2] is on record as 100%. In the case of `COC(=O)NCc1cc(-c2ccn(-c3c(C)cc(Br)cc3C)n2)ccc1C` [compound 48], the “Test B disease control rating” value in assay [1] (Rate 10 ppm) was 68%. For the same molecule, the “Test D disease control rating” value in assay [2] was determined as 99%.

As for `COC(=O)NCc1cc(-c2ccn(-c3c(F)cc(N4CCN(C)CC4)cc3F)n2)ccc1C` [compound 148], the “Test B disease control rating” value in assay [1] (Rate 10 ppm) is given as 0%. Further, in assay [2], the “Test D disease control rating” value amounted to 0%.

`COC(=O)NCc1cc(-c2ccn(-c3c(Cl)cc([N+](=O)[O-])cc3Cl)n2)ccc1C` [compound 54]: in assay [1] (Rate 10 ppm), the “Test B disease control rating” value was determined as 0%. Moreover, in assay [2], the “Test D disease control rating” value is recorded as 0%.

For the molecule `COC(=O)NNc1cc(-c2ccn(-c3c(F)cc(C(C)C)cc3F)n2)ccc1C` [Compound 155], the results for the pest or weed control at 10 ppm in assay [1] (Rate 10 ppm) and in assay [2] were 91% and 100%, respectively. On to `COC(=O)NCc1cc(-c2ccn(-c3c(F)cc(N4CCCCC4)cc3F)n2)ccc1C` [compound 151], for which the “Test B disease control rating” value in assay [1] (Rate 10 ppm) was 68%. For the same molecule, the “Test D disease control rating” value in assay [2] came out at 19%. As to “methyl N-[[5-[1-[2,6-difluoro-4-(2-propyn-1-yloxy)phenyl]-1H-pyrazol-3-yl]-2-methylphenyl]methyl]carbamate [Compound 30]”, in assay [1] (Rate 10 ppm), the “Test B disease control rating” value is reported as 98%.
